We go through 3 molecules from US20240181089A1, “PHARMACEUTICAL POLYMER CONJUGATES” (priority 2021, published 2024).

Experiment [1] has as its system folate receptor (FR) isoforms FR-α and FR-β. The following applies: Vaitilingam et al.; cited from earlier work.
Experiment [2] relates to cancer cell lines. The following applies: NPL6; cited from earlier work.
In experiment [3] the test system is 4T1 murine triple negative breast cancer cell line. The class given is cell-based. The following applies: 24 h treatment, LDH release, 4T1 cells, expressed in zinc concentration.
Procedure: 24 h in vitro cytotoxicity was tested for each compound against 4T1 murine triple negative breast cancer cell line in obtaining their IC5024h values using lactate dehydrogenase release assay (LDH assay), which were expressed in zinc concentration (μM Zn) units for comparative viewing.
Experiment [4] concerns 4T1 cells. Nature of the experiment: Apoptosis-necrosis flow cytometry with annexinV (A5) and propidium iodide (PI). The class given is cell-based, murine.
Experiment [5] relates to 4T1 cells. Description: Confocal microscopy mode-of-action test (cell detachment, anti-AIF, TUNEL, Hoechst) with or without PJ34. The experiment is classed as cell-based, murine. Particulars: 1.5 h treatment. The source says:
In addition to the cytotoxicity featuring the simultaneous uptake of PI and A5, Fatokun et al. previously defined PARP-dependent nuclear translocation of AIF and subsequent generation of massive DNA breaks as the hallmark features of parthanatos (Parthanatos: mitochondrial-linked mechanisms and therapeutic opportunities. British journal of pharmacology 171, 2000-2016 (2014)). To investigate whether the observed PI+A5 + necrotic 4T1 cell deaths by the zinc compounds (FIG. 5B and 5C) accompanied these features, we performed confocal microscopy studies after 1.5 h treatment for assessing the occurrence of PARP-dependent cytotoxicity, nuclear AIF translocation, and DNA breaks using fluorescent probes of anti-AIF, TUNEL, and Hoechst 33342 (Hoechst) DNA stain upon co-incubation with a potent PARP1 and PARP2 inhibitor PJ34. Assessment of PAR-polymer content, however, could not be incorporated into this experiment due to unavailability of sufficiently sensitive fluorescent probe for PAR-polymer during this study. Also, any longer treatment time could not be applied to this experiment due to extensive cytotoxic changes observed in the C010DS-Zn treated groups.

Where [6] appears, read: concentration-resolved study after 3 h treatment.

pIC50: −log10 of the molar value.

With `CN(CC1CNc2nc(N)[nH]c(=O)c2N1C)c1ccc(C(=O)N[C@@H](CCC(=O)O)C(=O)O)cc1` (some centres unmarked) [DMTHF, N^5, N^10-dimethyl tetrahydrofolate], the “folate receptor isoform preference” value in experiment [1] was “higher affinity for FR-α over FR-β”.
zinc pyrithione [ZnPyr2]: in experiment [2], the PARP cleavage result is reported as “complete PARP cleavage” and the “mode of cell death” value was “induced apoptosis in cancer cell lines”.
As usually defined, the pIC50 is the IC50 on a negative log10 scale, so that one unit is a factor of ten. A higher pIC50 goes with a low IC50. For `O=S(=O)([O-])[O-].[Zn+2]` [zinc sulfate], the pIC50 in experiment [3] is 4.09. In experiment [4] (setting [6]), the “A5+ only apoptotic cell deaths” value is “without notable increases”, the “proportion of PI+ only necrosis” value was determined as 18% and the “proportion of PI+A5+ necrosis” value worked out at 4%. The “PI+ only or PI+A5+ necrotic cell death” value in experiment [4] (concentration-resolved study after 3 h treatment, maximum) is recorded as not above 26%. Moreover, the “time after treatment at which mainly PI+A5+ and minor PI+ only necrotic cell death was induced” value in experiment [4] (time resolved study, 450 μM Zn) turned out to be 1.5 h. Besides, the “nuclear AIF translocation and DNA damages (TUNEL)” value in experiment [5] is listed as “failed to elicit significantly higher nuclear AIF translocation nor the DNA damages”. The cell detachment entry in experiment [5] (all concentrations tested) is on record as “did not cause marked cell detachment”.
